Non-standard residues stand in square brackets, D forms with d. No end group written: not given here. *: point of attachment. FITC = O=C1OC2(c3ccc(O)cc3Oc3cc(O)ccc32)c2ccc(NC(=S)*)cc21; pY = N[C@@H](Cc1ccc(OP(=O)(O)O)cc1)C(=O)O
Legend:
[1] = system: T cells from GVHD patient blood samples; assay: T cells from GVHD patient blood samples treated with SLP76pTYR; format: cell-based, human
SLP76: ITK signaling = assay: Western blot of signaling proteins in mouse T cells stimulated with anti-CD3 and anti-CD28; format: cell-based
Procedure: Western blotting: For protein analysis, T cells were either nonstimulated, or stimulated with anti-CD3 and anti-CD28 for 24 hours overnight, and were lysed with freshly prepared lysis buffer (RIPA Buffer (Fisher Scientific cat #PI89900)+cOmplete Protease Inhibitor Cocktail (Sigma-Aldrich; cat #11697498001)) and centrifuged for 10 minutes at 14000 rpm at 4° C. Protein aliquots of 70 μg of protein were loaded on a 12-18% denaturing polyacrylamide gel and transferred to nitrocellulose membranes for immunoblot analysis using antibodies specific to proteins of interest.
To ensure that the peptide easily enters cells and that its cellular localization can be monitored, a C-terminal TAT peptide (GRKKRRQRRRPQ) (SEQ ID NO:3) and an N-terminal fluorescent FITC dye were incorporated, respectively, and named it SLP76pTYR peptide ([…]). SLP76pTYR peptide (FITC Dye ^132NEEEEAPVEDDADpYEPPPSNDEEA^155-TAT) (SEQ ID NO:5) and non-specific control peptide (FITC Dye-[…]-TAT) (SEQ ID NO:6) were synthesized by Genscript Inc (Piscataway, NJ). These peptides were initially dissolved in 3% ammonia water to a final concentration of 10 mg/mL and then further diluted into PBS to a final concentration of 0.1 mg/mL. Fresh splenocytes were isolated from WT mice, and T cells were generated from splenocytes as previously described (Baker et al., 2001). Briefly, T cells were isolated from splenocytes using MACS beads (Miltenyi Biotec), then cultured in complete RPMI media (3×10^6 cells/mL) and plated on anti-CD3 ([…]; Biolegend; cat #100202) and anti-CD28 ([…]; Biolegend; cat #102116) antibody-coated tissue culture plates until otherwise specified. T cells were incubated with SLP76pTYR, control peptide or vehicle alone at different concentrations ranging from 100 ng/ml to 1 mg/ml in the presence of 4 mg/ml of protamine sulfate. […] Within 60 minutes, it was observed that peptides were inside the cells. Cells were cultured for 5 minutes prior to investigating signaling changes. Cells were examined for the presence of FITC by microscopy using a Leica DMi8 microscope equipped with an infinity total internal reflection fluorescence (TIRF) and DIC modules, a Lumencor SOLA SE II light box, a 150 mW 488 (GFP) laser and filter cube, a 100x/1.47 NA objective, and an Andor iXon Life 897 EMCCD camera. FITC expression was confirmed by flow cytometry as well. Cells were lysed and used in Western blots.
ITK deficiency is known to enhance the development of regulatory T cells (Tregs) (Elmore et al., 2020, Owen et al., 2019) so the peptide inhibitor was tested to determine whether inhibition of the ITK: SLP76Y145 interactions using SLP76pTYR would induce Tregs. First, the frequency of Tregs was examined by expression of CD4^+ and FoxP3^+ (FIG. 18A). Next, total mouse T cells were stimulated with anti-CD3 (Sugie et al., 2004) in the presence of either SLP76pTYR, nonspecific peptide, or vehicle alone for 5 to 24 hours, and cells were harvested and examined for the presence of Tregs (CD4^+CD25^+FoxP3^+). […] Next, the effects of SLP76pTYR peptide on human PBMC samples from healthy human patients was investigated. T cells from these patients were stimulated with anti-CD3 (OKT3) (Karimi et al., 2005) for 5 minutes in the presence of SLP76pTYR or vehicle alone. […] No differences in stimulated or unstimulated total human AKT (FIG. 18E and FIG. 28H) was observed, providing a showing that the SLP76pTYR peptide has an impact on signaling pathways downstream of SLP76 in both mouse and human T cells. […] Next, the ability of SLP76pTYR peptide to affect the production of proinflammatory cytokines in human PBMCs was investigated. T cells from healthy human were stimulated with anti-CD3 (OKT3) and anti-CD28 in the presence of SLP76pTYR or vehicle alone, along with Brefeldin A. T cells incubated with SLP76pTYR or vehicle alone were also examined in the presence of PMA+lonomycin and Brefeldin A for 6 hours. […]

[2] = anti-CD3 and anti-CD28 for 5 minutes, vs vehicle alone

“FITC Dye ^132NEEEEAPVEDDADpYEPPPSNDEEA^155-TAT ({FITC}-NEEEEAPVEDDAD[pY]EPPPSNDEEAGRKKRRQRRRPQ) [SLP76pTYR]” was tested, and the IFN-γ production [1] was “significantly reducing IFN-γ and TNF-αproduction”, the TNF-α production [1] was “significantly reducing IFN-γ and TNF-αproduction” and the “development of FoxP3+ regulatory T cells” value [1] was “enhances the development of FoxP3^+ regulatory T cells”. For the same substance, the “off-target effects against other kinases” value (SLP76: ITK signaling; PI3K and AKT, mouse and human T cells (FIG. 28A-H)) was “minimal off-target effects against other kinases, including PI3K and AKT”, the “ITK phosphorylation, stimulated” value (SLP76: ITK signaling; [2]) was “reduction in ITK phosphorylation” and the “PLCγ-1 phosphorylation, stimulated” value (SLP76: ITK signaling; [2]) was “a reduction in stimulated phosphorylation PLCγ-1 was observed”. The “ITK phosphorylation, non-stimulated” value (SLP76: ITK signaling; non-stimulated cells, vs vehicle alone) was “A reduction in non-stimulated phosphorylation ITK was not observed”, the “phosphorylation of AKT” value (SLP76: ITK signaling; stimulated and non-stimulated, also total AKT) was “No differences in the phosphorylation of PI3K or AKT was observed” and the “phosphorylation of PI3K” value (SLP76: ITK signaling; stimulated and non-stimulated, also total PI3K) was “No differences in the phosphorylation of PI3K or AKT was observed”. The “non-stimulated phospho-PLCγ-1 and stimulated or non-stimulated PLCγ-1” value (SLP76: ITK signaling; vs vehicle alone) was “no reduction with non-stimulated phospho-PLCγ-1or either stimulated or non-stimulated PLCγ-1 was observed” and the “total ITK, stimulated or non-stimulated” value (SLP76: ITK signaling; vs vehicle alone) was “nor was any reduction for non-stimulated total ITK or stimulated total ITK observed”.
